Source: patent publication US20240180888A1, “C5AR1 INHIBITORS FOR TREATING […] REACTIONS TO TAXANES” (Dompe' Farmaceutici SPA, priority 2021, published 2024)
Like-named read-outs stand apart in the source and are kept apart here.

Legend:
[1] = target: T1, complement component 5a receptor 2 (C5AR2) (Homo sapiens, UniProt Q9P296); assay: BIAcore SPR binding to C5aR2 immobilised on sensorchip CM5 via His-tag
T1 construct: purchased CUSABIO CSB-CF868390HU
Description: (§1) BIAcore technology was used to analyze the interaction between Paclitaxel and complement component 5a receptor 1 (C5aR1) (Example 1), complement component 5a receptor 2 (C5AR2) (Example 2) or complement component 5a (Example 3).
(§2) The BIAcore systems exploit the phenomenon of Surface Plasmon Resonance (SPR) to monitor interactions between molecules in real time. Briefly, SPR phenomenon occurs in thin conducting films at an interface between media of different refractive index. In BIAcore systems, the media are the glass of the sensorchip and the sample solution, and the conducting film is a thin layer of gold on the sensorchip surface. BIAcore monitors the interaction between two molecules, one attached to the sensor surface, called ligand, and the other one free in solution, and called analyte.
A policlonal anti-His antibody (ab137839, Abcam) was immobilized on a sensorchip CM5 (#29149604, Cytiva). In details, the antibody was diluted at a concentration of 50 μg/ml in 10 mM acetate buffer at pH 4.0, and injected over the surface of the sensorchip. Activation and deactivation of sensorchip were performed as described in Example 1a). […] Once the antibody was immobilized, the receptor was captured in an oriented way on the surface of the sensorchip. In particular, C5AR2-His (CSB-CF868390HU, CUSABIO) at a concentration of 100 μg/ml was injected onto the sensorchip with a flow rate of 5 microl/min in Running Buffer.
5 μM C5a (A144, Complement Technologies) was injected on C5AR2 surface of the sensorchip prepared in Example 2a).
Paclitaxel was injected on the C5aR2 surface of the sensorchip prepared in Example 2a) at different concentrations (10, 100 and 200 microM) in Running Buffer, and the amount of obtained RU was evaluated.

[2] = target: T2, complement component 5a receptor 1 (C5aR1) (Homo sapiens, UniProt P21730); assay: BIAcore SPR binding to C5aR1 immobilised on sensorchip CM5 via c-Myc-tag
T2 construct: purchased OriGene TP303784
T2 sequence (P21730 1-350): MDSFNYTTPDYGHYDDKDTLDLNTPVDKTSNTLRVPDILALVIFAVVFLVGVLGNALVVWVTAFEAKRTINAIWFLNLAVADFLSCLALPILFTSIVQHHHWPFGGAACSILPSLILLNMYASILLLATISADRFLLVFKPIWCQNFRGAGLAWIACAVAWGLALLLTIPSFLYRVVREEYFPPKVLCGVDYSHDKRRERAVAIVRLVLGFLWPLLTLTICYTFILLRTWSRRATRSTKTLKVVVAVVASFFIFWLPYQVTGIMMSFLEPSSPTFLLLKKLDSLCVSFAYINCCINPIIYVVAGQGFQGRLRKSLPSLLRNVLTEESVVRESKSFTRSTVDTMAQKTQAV
Description: as §1, §2
An anti-c-Myc antibody (9E10, sc-40, Santa Cruz Technology) was immobilized on a sensorchip CM5 (#29149604, Cytiva). In details, the antibody was diluted at a concentration of 50 μg/ml in 10 mM acetate buffer at pH 4.5, and injected over the surface of the sensorchip. In details, the dextran matrix on the sensorchip surface was first activated with a mixture of […] (EDC) and N-hydroxysuccinimide (NHS) to give reactive succinimide esters. Anti-Myc antibodies were then passed over the surface and the esters reacted spontaneously with uncharged amino groups to covalently link the ligand to the dextran. Then, the surface was deactivated by ethanolamine-HCl.
Once the antibody was immobilized, the receptor was captured on the surface of the sensorchip. This procedure allowed the immobilization of the ligand of interest in an oriented way. In particular, C5AR1-cMyc (TP303784, OriGene) at a concentration of 20 μg/ml in Running Buffer (50 mM HEPES buffer, pH 7.0 containing 0.01% CHS, 0.1% CHAPS, and 0.33 mM of lipids) was injected onto the sensorchip prepared above with a flow rate of 5 μI/min.
In details, 5 μM C5a (A144, Complement Technologies) in Running Buffer was injected on C5aR1 surface of sensorchip prepared in Example 1a).
To first evaluate a direct binding of Paclitaxel and C5aR1, the compound was injected on the C5aR1 surface of the sensorchip prepared in Example 1a) at a concentration of 300 μM in Running Buffer.
Running Buffer at different concentrations (from 4.06 to 37.5 μM), injected on the sensorchip for 4 minutes and allowed to dissociate for 5 minutes, flowing Running Buffer without Paclitaxel. In this way, the kinetic constant was evaluated as a function of time.
Also, the affinity value at equilibrium of Paclitaxel/Myc-05aR1 interaction was determined by measuring the steady-state binding levels, through a Scatchard analysis of the RU values at equilibrium.

[3] = system: human (THP-1) macrophages; assay: Proteome profiler cytokine release assay in human macrophages; format: cell-based; details: human; 10 nM, 24 h
Description: After 24 hours, cells were treated with C5a (diluted in medium) (10 nM, R&D, USA), Paclitaxel (diluted in medium) (10 nM, Sigma, USA) in the absence and in the presence of the C5a inhibitor DF3966A (10 μM), and anti C5aR Ab (BioLegend, CA, USA; 50 nM) or Avacopan (10 μM) for 24 hours, then the media was replaced with culture media (5 ml) for 24 h and then collected.
Conditioned media were centrifugated to remove particulates and assayed immediately. […] The reagents were prepared following manufacturer's protocols (R&D, USA). Briefly, the membranes were incubated with Array Buffer 6 for 1 hour on a rocking platform shaker. The samples were prepared by adding up to 1 ml of Array Buffer 4 in two separated tubes and then 15 microl of reconstituted mouse cytokine detection antibody cocktail (>40 mouse cytokines) to each prepared sample and incubated 1 hour. Then, the Array Buffer 6 was aspirated and replaced with the sample/antibody mixtures and incubated at 4° C. overnight. The following day, membranes were washed 3 times and Streptavidin-HRP (1:2000) was incubated for 30 minutes at room temperature on a rocking platform shaker. The membranes were washed again, and 1 ml of prepared Chemi Reagent mix was placed onto each membrane. Multiple exposure times were acquired using UVITEC digital analyzer (Alliance, Cambridge, UK).
The positive signals seen in the developed membranes can be identified by placing the transparency overlay template on the array image and aligning it with pairs of reference spots in the three corners of each array (see FIG. 10). […] Pixel densities (average signals of pair of duplicates which represent each cytokine) were analyzed by ImageJ and the average background was subtracted from each spot.
In details, the profiling of cytokines released (>40 cytokines) from RAW 264.7 and human macrophages challenged with paclitaxel (Sigma-Aldrich; 10 nM) or C5a (R&D Systems, Inc. MN, USA; 10 nM) for 24 h using a proteome profiler assay. […] The experimental assay is explained in example 4.
For the human macrophages, human XL Cytokine Array kit #Ary022B was used, while for murine macrophages mouse cytokine Array Panel A #Ary006 was used (R&D systems, USA).

T1 sequence (Q9P296 whole entry): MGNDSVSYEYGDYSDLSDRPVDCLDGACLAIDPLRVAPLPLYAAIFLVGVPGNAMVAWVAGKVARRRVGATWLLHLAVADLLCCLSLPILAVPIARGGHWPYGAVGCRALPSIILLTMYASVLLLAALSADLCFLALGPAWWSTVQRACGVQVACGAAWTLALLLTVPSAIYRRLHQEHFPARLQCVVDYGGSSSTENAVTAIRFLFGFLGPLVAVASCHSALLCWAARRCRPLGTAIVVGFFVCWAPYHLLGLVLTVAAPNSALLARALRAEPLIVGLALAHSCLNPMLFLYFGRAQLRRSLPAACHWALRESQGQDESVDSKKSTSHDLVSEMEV

## CC(=O)O[C@H]1C(=O)[C@@]2(C)[C@H]([C@H](OC(=O)c3ccccc3)[C@]3(O)C[C@H](OC(=O)[C@H](O)[C@@H](NC(=O)c4ccccc4)c4ccccc4)C(C)=C1C3(C)C)[C@]1(OC(C)=O)CO[C@@H]1C[C@@H]2O [Paclitaxel]
[1]; 10, 100 and 200 microM in Running Buffer
  binding to immobilised C5aR2: not able to bind
[1]; from 4.06 μM to 37.5 μM
  binding to immobilised C5aR2 (legend of FIG. 8): not able to bind
[2]; 300 μM in Running Buffer
  Paclitaxel bound to immobilised C5aR1, resonance units: 300 RU
[2]; 4.06 to 37.5 μM, 4 minutes injection, 5 minutes dissociation, read-out: Kd value (kinetic evaluation)
  Kd: 670 nM
[2]; steady-state RU as a function of analyte concentration, read-out: affinity constant at equilibrium (steady-state binding levels, Scatchard analysis)
  Kd: 525 nM
[3]
  proteome profile of cytokines released: resembled that of typical anaphylaxis

B1: C5a: anaphylatoxin, pro-inflammatory polypeptide, the natural ligand of the receptor C5aR1 (protein, UniProt P01031 678-751, looked up)
C5a anaphylatoxin: TLQKKIEEIAAKYKHSVVKKCCYDGACVNNDETCEQRAARISLGPRCIKAFTECCVVASQLRANISHKDMQLGR
modifications: C5a anaphylatoxin
notes: anaphylatoxin, pro-inflammatory polypeptide, the natural ligand of the receptor C5aR1
[1]; 5 μM
  binding to immobilised C5aR2: is able to bind
[2]; 5 μM in Running Buffer
  binding to immobilised C5aR1: can bind
[3]
  proteome profile of cytokines released: resembled that of typical anaphylaxis
